Among the data in PubChem BioAssay AID504703 (Southern Research Specialized Biocontainment Screening …, 2011) are IC50 and IC90 values, retold here.

This experiment deals with M. tuberculosis H37Rv growth inhibition with meropenem. Nature of the experiment: M. tuberculosis growth inhibition, H37Rv, set 2, dose response (AID 504703).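 Also: growth ran 7 days at 37 °C then overnight with Alamar Blue before reading.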
The mark [1] stands for this setting: M. tuberculosis H37Rv growth inhibition, measured here: IC50 without meropenem.
Where [2] appears, read: M. tuberculosis H37Rv growth inhibition, measured here: IC90 without meropenem.
[3] abbreviates: measured here: IC90 with meropenem.

Values joined by “and” are separate entries in the source; they are usually repeats but may differ in a detail not shown here. Identical values can stand only once. Active and inactive are the calls of the source. No rule for the calls is given here. Where only a bound is given, the exact number is not on record here.

A word on the IC50: it is the concentration at which inhibition is half-maximal. The term IC90 denotes the concentration at which the effect reaches the 90% level. Low readings indicate an effect from little substance, high ones a need for much substance.

On to `CC(C)Cn1c2c(c(O)c(C(=O)Nc3nccs3)c1=O)CCCC2`, for which the IC50 under setting [1] is over 25 µM. Besides, under setting [2], the IC90 is over 25 µM.
Turning to `CCOc1ccc2nc(NC(=O)Cc3ccc(OC)cc3)sc2c1`, the IC50 under setting [1] was over 25 µM. Under setting [2], this compound showed an IC90 of over 25 µM.
With `COC(=O)c1c(C)[nH]c2ccc(F)cc12`, the half-inhibitory concentration (IC50) under setting [1] is over 25 µM. Besides, under setting [2], the IC90 was over 25 µM.
Under setting [1], `CCOc1ccc2nc(NC(=O)COc3ccc(F)cc3)sc2c1` displayed an IC50 of over 25 µM. This compound also yielded an IC90 under setting [2] of over 25 µM.
For `Cc1cc(C)c(OCC(=O)Nc2nc3ccccc3[nH]2)c(C)c1`, the IC50 is 5.55 µM (inactive). Further, under setting [1], the IC50 was > 18.8 µM and 7.46 µM. Under setting [2], this compound gave an IC90 of over 25 µM. The same compound showed an IC90 under setting [3] of over 25 µM.
Compound `Cc1ccc2oc(/N=C(\N)NC(=O)c3ccccc3)nc2c1` showed an IC50 under setting [1] of over 25 µM. Under setting [2], this compound displayed a concentration for an effect of 90% (IC90) of over 25 µM.
With `Cc1cc2cc(O)ccc2[nH]1`, the IC50 under setting [1] was over 25 µM. Under setting [2], this compound displayed an IC90 of over 25 µM.
Regarding `O=C(O)CCC(=O)Nc1nc2ccccc2s1`, the IC50 under setting [1] is over 25 µM. In addition, the IC90 under setting [2] was over 25 µM.
For `Cc1ccc(OC(C)C(=O)Nc2ncccn2)c(C)c1` (stereo not given), the IC50 under setting [1] is over 25 µM. Further, the IC90 under setting [2] was over 25 µM.
On to `COC(=O)c1sc(-c2ccc(C(C)(C)C)cc2)cc1NC(=O)CCC(=O)O`, for which the IC50 is 7.32 µM (inactive). Further, under setting [1], the IC50 is 13.5 µM and 9.45 µM. Also, the IC90 under setting [2] is over 25 µM. Under setting [3], this compound registered an IC90 of over 25 µM.
As to `c1ccc(-c2cc(N3CCOCC3)nc3ccccc23)cc1`, the IC50 was 10 µM (inactive). The compound further gave an IC50 under setting [1] of over 25 µM. The IC90 under setting [2] was over 25 µM. Under setting [3], this compound had an IC90 of over 18.8 µM.
Under setting [1], `Cc1ccc(C(C)C)c(OCC(=O)Nc2nc3ccccc3s2)c1` showed an IC50 of over 25 µM. This compound also gave a 90% effect concentration (IC90) under setting [2] of over 25 µM.
Under setting [1], `CCC(=O)N/C(N)=N/c1nc2ccccc2o1` yielded an IC50 of over 25 µM. Under setting [2], this compound registered an IC90 of over 25 µM.
Under setting [1], `CCOc1ccc2c(c1)c(C(C)=O)c(C)n2Cc1ccco1` yielded an IC50 of over 25 µM. Under setting [2], this compound yielded an IC90 of over 25 µM.
`CCOC(=O)c1c(C)[nH]c2ccccc12` yielded an IC50 under setting [1] of over 25 µM. Besides, the IC90 under setting [2] is over 25 µM.
Under setting [1], `O=C(COc1ccccc1)Nc1nc2ccccc2s1` registered an IC50 of over 25 µM. Under setting [2], this compound came in with a concentration for an effect of 90% (IC90) of over 25 µM.
With `O=C(CSc1n[nH]c(=O)n1C1CC1)c1ccc2c(c1)OCCO2`, the IC50 was 4.57 µM (inactive). The same compound returned an IC50 under setting [1] of 10.8 µM. The 90% effect concentration (IC90) under setting [2] was over 25 µM. This compound returned an IC90 under setting [3] of over 25 µM.
Under setting [1], `Cc1ccc(OCC(=O)Nc2ccc3c4c(cccc24)CC3)c(C)c1` gave an IC50 of over 25 µM. In addition, the 90% effect concentration (IC90) under setting [2] is over 25 µM and the IC90 under setting [3] is over 25 µM.
`Cc1ccccc1OCC(=O)Nc1noc(-c2ccccc2)n1`: the IC50 under setting [1] is over 25 µM. Besides, the IC90 under setting [2] was over 25 µM.
`COc1cccc(NC(=O)C2CC2)c1` showed an IC50 under setting [1] of over 25 µM. In addition, the IC90 by setting is: under setting [2], over 25 µM; under setting [3], over 25 µM.
Regarding `CCOc1ccc2[nH]cc(C(=O)OC)c2c1`, the IC50 is > 25 µM (inactive). Besides, the IC50 under setting [1] is over 25 µM. For the same compound, the IC90 under setting [2] is over 25 µM. The compound also gave an IC90 under setting [3] of over 25 µM.
In turn, `COc1ccc2nc(NC(=O)COc3ccccc3C(C)C)sc2c1` displayed an IC50 under setting [1] of over 25 µM. This compound gave an IC90 under setting [2] of over 25 µM.
In the case of `COc1ccc(Cl)cc1C(=O)Nc1nc2ccccc2[nH]1`, the IC50 was 16.2 µM (inactive). The compound further came in with an IC50 under setting [1] of over 25 µM. For the same compound, the IC90 under setting [2] was over 25 µM. The compound also had an IC90 under setting [3] of over 25 µM.
On to `CC(=O)c1c(C)n(-c2ccccc2)c2ccc(OS(=O)(=O)C(F)(F)F)cc12`, for which the IC50 is > 25 µM (inactive). The IC50 under setting [1] was over 25 µM. Besides, the IC90 under setting [2] is over 25 µM. Under setting [3], this compound had a concentration for an effect of 90% (IC90) of over 25 µM.
As for `CC(=O)c1c(C)n(-c2ccccc2)c2ccc(OC(C)C)cc12`, under setting [1], the IC50 is over 25 µM. Under setting [2], this compound registered an IC90 of over 25 µM.
As to `COC(=O)c1c(C)[nH]c2ccc(Cl)cc12`, the half-inhibitory concentration (IC50) under setting [1] was over 25 µM. This compound also registered an IC90 under setting [2] of over 25 µM.
Under setting [1], `Cc1ccc(OCC(=O)Nc2nc3c(Cl)cccc3s2)cc1` came in with an IC50 of over 25 µM. This compound also came in with an IC90 under setting [2] of over 25 µM.
`Cc1cc2cc(F)ccc2[nH]1` registered an IC50 under setting [1] of over 25 µM. Further, under setting [2], the 90% effect concentration (IC90) is over 25 µM.
Consider `c1ccc(OCc2nnc(-c3ccccc3)o2)cc1`, for which the IC50 is 15 µM (inactive). The 50% inhibitory concentration (IC50) under setting [1] is > 18.8 µM and 15.3 µM. The same compound gave an IC90 under setting [2] of over 25 µM. Under setting [3], this compound came in with an IC90 of over 25 µM.
`O=C(COc1ccc2ccccc2c1)Nc1nc2ccccc2[nH]1`: the IC50 was > 18.8 µM (inactive) and 8.87 µM (inactive). Besides, the IC50 under setting [1] is > 18.8 µM and 15.5 µM. For the same compound, the IC90 under setting [2] is over 25 µM. The compound also yielded an IC90 under setting [3] of over 25 µM.
`CCOC(=O)COc1nc(-c2ccc(Cl)cc2)cc(-c2ccco2)c1C#N` registered an IC50 under setting [1] of over 25 µM. Besides, the IC90 runs as follows: under setting [2], over 25 µM; under setting [3], over 25 µM.
As for `Cc1cc(C)c(OCC(=O)Nc2nc3ccccc3s2)c(Cl)c1`, the IC50 under setting [1] is over 25 µM. Moreover, under setting [2], the IC90 was over 25 µM.
